Experimental data published in patent publication US9693997B2, “Antiviral compounds” (priority 2013, dated 2017).

Tests used:
Test in all cases: microbe, parasite or virus in culture
[1] = test system: Pseudotyped HCV GT1b particles (HCVpp), entry into Huh7-high CD81 cells; format: cell-based, HCV GT1b Con1 strain; conditions: Hepatitis C virus, GT1B, 72 h, read-out: HCVpp GT-1b (EC50, μM)
[2] = test system: Pseudotyped HCV GT1a particles (HCVpp), entry into Huh7-high CD81 cells; format: cell-based, HCV GT1a H77 strain; conditions: Hepatitis C virus, 72 h, read-out: HCVpp GT-1a (EC50, μM)
[3] = test system: pseudotyped VSV G particles (VSVpp) in Huh7-high CD81 cells; format: cell-based, vesicular stomatitis virus; conditions: Vesicular stomatitis virus, 72 h, read-out: VSVpp (EC50, μM)

Row | Structure (SMILES) | EC50 [1] [µM] | EC50 [2] [µM] | EC50 [3] [µM]
1 | Cc1ccc(-c2c(Cl)cc(Nc3n[nH]c(N)n3)cc2Cl)cc1 [Compound 97, N-3-(2,6-Dichloro-4′-methyl-biphenyl-4-yl)-1H-[1,2,4]triazole-3,5-diamine] | 0.704 | 0.007 | 9.33
2 | COc1ccc(-c2c(Cl)cc(Nc3n[nH]c(N)n3)cc2Cl)cc1 [Compound 98, N-3-(2,6-Dichloro-4′-methoxy-biphenyl-4-yl)-1H-[1,2,4]triazole-3,5-diamine] | 0.353 | 0.01 | 5.25
3 | Nc1nc(Nc2cc(Cl)c(-c3ccc(C(F)(F)F)cc3)c(Cl)c2)n[nH]1 [Compound 99, N-3-(2,6-Dichloro-4′-trifluoromethyl-biphenyl-4-yl)-1H-[1,2,4]triazole-3,5-diamine] | 1.57 | 0.056 | 20.6
4 | COc1cccc(-c2c(Cl)cc(Nc3n[nH]c(N)n3)cc2Cl)c1 [Compound 100, N-3-(2,6-Dichloro-3′-methoxy-biphenyl-4-yl)-1H-[1,2,4]triazole-3,5-diamine] | 0.839 | 0.062 | 14.3
5 | Nc1nc(Nc2cc(Cl)c(-c3ccccc3Cl)c(Cl)c2)n[nH]1 [Compound 101, N-3-(2,6,2′-Trichloro-biphenyl-4-yl)-1H-[1,2,4]triazole-3,5-diamine] | 0.514 | 0.037 | 13.2
6 | Nc1nc(Nc2cc(Cl)c(-c3ccc(Cl)c(Cl)c3)c(Cl)c2)n[nH]1 [Compound 102, N-3-(2,6,3′,4′-Tetrachloro-biphenyl-4-yl)-1H-[1,2,4]triazole-3,5-diamine] | 0.931 | 0.062 | 6.33
7 | N#Cc1cccc(-c2c(Cl)cc(Nc3n[nH]c(N)n3)cc2Cl)c1 [Compound 103, 4′-(5-Amino-1H-[1,2,4]triazol-3-ylamino)-2′,6′-dichloro-biphenyl-3-carbonitrile] | 0.269 | 0.025 | 13.3
8 | N#Cc1ccccc1-c1c(Cl)cc(Nc2n[nH]c(N)n2)cc1Cl [Compound 104, 4′-(5-Amino-1H-[1,2,4]triazol-3-ylamino)-2′,6′-dichloro-biphenyl-2-carbonitrile] | 1.28 | 0.072 | 17.8
9 | N#Cc1cc(-c2c(Cl)cc(Nc3n[nH]c(N)n3)cc2Cl)ccc1Cl [Compound 105, 4′-(5-Amino-1H-[1,2,4]triazol-3-ylamino)-4,2′,6′-trichloro-biphenyl-3-carbonitrile] | 0.472 | 0.039 | 16.8
10 | Nc1nc(Nc2cc(Cl)c(-c3cccc(C(=O)O)c3)c(Cl)c2)n[nH]1 [Compound 106, 4′-(5-Amino-1H-[1,2,4]triazol-3-ylamino)-2′,6′-dichloro-biphenyl-3-carboxylic acid] | 23.4 | 1.17 | 100
11 | CC(=O)c1ccc(-c2c(Cl)cc(Nc3n[nH]c(N)n3)cc2Cl)cc1 [Compound 107, 1-[4′-(5-Amino-1H-[1,2,4]triazol-3-ylamino)-2′,6′-dichloro-biphenyl-4-yl]-ethanone] | 0.228 | 0.008 | 11.1
12 | CS(=O)(=O)Nc1ccc(-c2c(Cl)cc(Nc3n[nH]c(N)n3)cc2Cl)cc1 [Compound 111, N-[4′-(5-Amino-1H-[1,2,4]triazol-3-ylamino)-2′,6′-dichloro-biphenyl-4-yl]-methanesulfonamide] | 0.039 | 0.003 | 7.53
13 | CS(=O)(=O)Nc1cccc(-c2c(Cl)cc(Nc3n[nH]c(N)n3)cc2Cl)c1 [Compound 112, N-[4′-(5-Amino-1H-[1,2,4]triazol-3-ylamino)-2′,6′-dichloro-biphenyl-3-yl]-methanesulfonamide] | 0.048 | 0.006 | 15.3
14 | CS(=O)(=O)c1cccc(-c2c(Cl)cc(Nc3n[nH]c(N)n3)cc2Cl)c1 [Compound 114, N-3-(2,6-Dichloro-3′-methanesulfonyl-biphenyl-4-yl)-1H-[1,2,4]triazole-3,5-diamine] | 0.069 | 0.01 | 18.2
15 | CN(C)C(=O)c1cccc(-c2c(Cl)cc(Nc3n[nH]c(N)n3)cc2Cl)c1 [Compound 115, 4′-(5-Amino-1H-[1,2,4]triazol-3-ylamino)-2′,6′-dichloro-biphenyl-3-carboxylic acid dimethylamide] | 0.107 | 0.007 | 34.8
16 | CNC(=O)c1ccc(-c2c(Cl)cc(Nc3n[nH]c(N)n3)cc2Cl)cc1 [Compound 116, 4′-(5-Amino-1H-[1,2,4]triazol-3-ylamino)-2′,6′-dichloro-biphenyl-4-carboxylic acid methylamide] | 0.086 | 0.002 | 29.4

Row | Structure (SMILES) | EC50 [1] [µM] | EC50 [2] [µM] | EC50 [3] [µM]
17 | CNC(=O)c1cccc(-c2c(Cl)cc(Nc3n[nH]c(N)n3)cc2Cl)c1 [Compound 117, 4′-(5-Amino-1H-[1,2,4]triazol-3-ylamino)-2′,6′-dichloro-biphenyl-3-carboxylic acid methylamide] | 0.218 | 0.011 | 26.1
18 | CNS(=O)(=O)c1ccc(-c2c(Cl)cc(Nc3n[nH]c(N)n3)cc2Cl)cc1 [Compound 118, 4′-(5-Amino-1H-[1,2,4]triazol-3-ylamino)-2′,6′-dichloro-biphenyl-4-sulfonic acid methylamide] | 0.013 | 0.004 | 4.24
19 | CC(C)S(=O)(=O)c1ccc(-c2c(Cl)cc(Nc3n[nH]c(N)n3)cc2Cl)cc1 [Compound 122, N-3-[2,6-Dichloro-4′-(propane-2-sulfonyl)-biphenyl-4-yl]-1H-[1,2,4]triazole-3,5-diamine] | 0.024 | 0.004 | 12.1
20 | CN(C)S(=O)(=O)c1ccc(-c2c(Cl)cc(Nc3n[nH]c(N)n3)cc2Cl)cc1 [Compound 123, 4′-(5-Amino-1H-[1,2,4]triazol-3-ylamino)-2′,6′-dichloro-biphenyl-4-sulfonic acid dimethylamide] | 0.042 | 0.002 | 11
21 | Nc1nc(Nc2ccc(-c3ccccc3)c(Cl)c2)n[nH]1 [Compound 144, N*3*-(2-Chloro-biphenyl-4-yl)-1H-[1,2,4]triazole-3,5-diamine] | 2.92 | 0.333 | 34.8
22 | Nc1nc(Nc2ccc(-c3ccc(F)cc3)c(Cl)c2)n[nH]1 [Compound 145, N*3*-(2-Chloro-4′-fluoro-biphenyl-4-yl)-1H-[1,2,4]triazole-3,5-diamine] | 6.02 | 0.532 | 39.1
23 | Nc1nc(Nc2ccc(-c3ccc(F)c(F)c3)c(Cl)c2)n[nH]1 [Compound 147, N*3*-(2-Chloro-3′,4′-difluoro-biphenyl-4-yl)-1H-[1,2,4]triazole-3,5-diamine] | 6.12 | 0.621 | 47.2
24 | Nc1nc(Nc2ccc(-c3cccc(F)c3)c(Cl)c2)n[nH]1 [Compound 148, N*3*-(2-Chloro-3′-fluoro-biphenyl-4-yl)-1H-[1,2,4]triazole-3,5-diamine] | 3.34 | 0.301 | 33.8
25 | NC(=O)c1ccc(-c2c(Cl)cc(Nc3n[nH]c(N)n3)cc2Cl)cc1 [Compound 159, 4′-(5-amino-1H-1,2,4-triazol-3-ylamino)-2′,6′-dichlorobiphenyl-4-carboxamide] | 0.164 | 0.005 | 4.62
26 | COc1ccc(-c2c(Cl)cc(Nc3n[nH]c(N)n3)cc2C(F)(F)F)cc1S(=O)(=O)N1CCN(C(=O)OC(C)(C)C)CC1 [Compound 166, tert-butyl 4-(4′-(5-amino-1H-1,2,4-triazol-3-ylamino)-2′-chloro-4-methoxy-6′-(trifluoromethyl)biphenyl-3-ylsulfonyl)piperazine-1-carboxylate] | 0.005 | 0.003 | > 10
27 | Nc1nc(Nc2cc(Cl)c(-c3ccc(S(=O)(=O)N4CCCC4)cc3)c(C(F)(F)F)c2)n[nH]1 [Compound 170, N3-(2-chloro-4′-(pyrrolidin-1-ylsulfonyl)-6-(trifluoromethyl)biphenyl-4-yl)-1H-1,2,4-triazole-3,5-diamine] | 0.026 | 0.02 | 14.1
28 | Nc1nc(Nc2cc(Cl)c(-c3ccc(S(=O)(=O)N[C@H]4C[C@H](O)C4)cc3)c(C(F)(F)F)c2)n[nH]1 [Compound 173, 4′-(5-amino-1H-1,2,4-triazol-3-ylamino)-2′-chloro-N-(trans-3-hydroxycyclobutyl)-6′-(trifluoromethyl)biphenyl-4-sulfonamide] | 0.019 | 0.007 | > 10
29 | COc1ccc(-c2c(Cl)cc(Nc3n[nH]c(N)n3)cc2C(F)(F)F)cc1S(=O)(=O)N1CCOCC1 [Compound 177, N3-(2-chloro-4′-methoxy-3′-(morpholinosulfonyl)-6-(trifluoromethyl)biphenyl-4-yl)-1H-1,2,4-triazole-3,5-diamine] | 0.018 | 0.003 | 23.4
30 | COc1cc(-c2c(Cl)cc(Nc3n[nH]c(N)n3)cc2C(F)(F)F)ccc1S(=O)(=O)NC(C)(C)C [Compound 179, 4′-(5-amino-1H-1,2,4-triazol-3-ylamino)-N-tert-butyl-2′-chloro-3-methoxy-6′-(trifluoromethyl)biphenyl-4-sulfonamide] | 0.02 | 0.002 | 8.55
31 | Nc1nc(Nc2cc(Cl)c(-c3ccc(S(=O)(=O)N[C@H]4CC[C@H](O)CC4)cc3)c(C(F)(F)F)c2)n[nH]1 [Compound 184, 4′-(5-amino-1H-1,2,4-triazol-3-ylamino)-2′-chloro-N-(trans-4-hydroxycyclohexyl)-6′-(trifluoromethyl)biphenyl-4-sulfonamide] | 0.05 | 0.028 | > 10
